# Assay results as given in patent US12090149B2, “SMAD3 inhibitors” (Moexa Pharmaceuticals Limited, priority 2018, dated 2024).
# Values joined by “and” are separate entries in the source; they are usually repeats but may differ in a detail not shown here. Equal entries are not always repeated. “Also recorded” adds a separate entry of the source.
# Columns and labels:
# B16-F10 syngeneic model [1] = assay: Subcutaneous B16-F10 syngeneic model, tumor growth; format: in vivo, C57BL/6 mice; conditions: 30 mg/kg q.d. * 3W i.p.
# CYP2C9 = biological target: T1, CYP2C9 (Homo sapiens, UniProt P11712); assay: Cytochrome P450 inhibition assay, human liver microsomes, CYP2C9; format: in vitro ADME; conditions: 10 uM
# T1 construct: CONSTRUCT DETAILS: Microsomes; from tissue; host or cells: human liver microsomes
# T1 sequence (P11712 whole entry): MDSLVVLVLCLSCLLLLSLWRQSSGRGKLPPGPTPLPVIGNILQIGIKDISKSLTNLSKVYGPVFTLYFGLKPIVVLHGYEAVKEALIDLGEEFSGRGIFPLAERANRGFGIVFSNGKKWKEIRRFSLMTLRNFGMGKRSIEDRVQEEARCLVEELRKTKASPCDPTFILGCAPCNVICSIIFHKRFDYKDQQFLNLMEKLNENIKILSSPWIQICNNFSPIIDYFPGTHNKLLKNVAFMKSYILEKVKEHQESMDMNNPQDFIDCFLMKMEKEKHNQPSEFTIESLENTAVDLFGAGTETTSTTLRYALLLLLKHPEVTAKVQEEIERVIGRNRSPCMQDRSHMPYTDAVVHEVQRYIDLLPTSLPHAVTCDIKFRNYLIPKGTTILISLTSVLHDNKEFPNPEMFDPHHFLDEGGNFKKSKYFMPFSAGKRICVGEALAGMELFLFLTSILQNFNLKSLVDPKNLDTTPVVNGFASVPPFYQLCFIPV
# From the text: • SUBSTRATE: Diclofenac
# CYP3A4 = CYP3A4 (Homo sapiens, UniProt P08684); assay: Cytochrome P450 inhibition assay, human liver microsomes, CYP3A4; conditions: 10 uM
# CYP3A4, sequence (P08684 whole entry): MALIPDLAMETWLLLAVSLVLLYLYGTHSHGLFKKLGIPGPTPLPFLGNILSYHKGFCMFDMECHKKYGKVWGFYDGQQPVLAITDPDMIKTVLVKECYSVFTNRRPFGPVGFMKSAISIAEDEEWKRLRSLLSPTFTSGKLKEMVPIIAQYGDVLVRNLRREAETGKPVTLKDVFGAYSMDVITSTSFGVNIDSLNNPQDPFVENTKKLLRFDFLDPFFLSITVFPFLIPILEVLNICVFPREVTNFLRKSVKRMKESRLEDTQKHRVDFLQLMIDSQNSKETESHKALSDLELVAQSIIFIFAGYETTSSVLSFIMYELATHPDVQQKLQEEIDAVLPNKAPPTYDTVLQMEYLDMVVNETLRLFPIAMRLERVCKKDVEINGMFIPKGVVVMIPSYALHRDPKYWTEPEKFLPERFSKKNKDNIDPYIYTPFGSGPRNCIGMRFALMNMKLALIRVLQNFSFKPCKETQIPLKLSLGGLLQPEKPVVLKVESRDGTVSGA
# CYP2D6 = biological target: T2, CYP2D6 (Homo sapiens, UniProt P10635); assay: Cytochrome P450 inhibition assay, human liver microsomes, CYP2D6; format: in vitro ADME; conditions: 10 uM
# T2 construct: CONSTRUCT DETAILS: Microsomes; from tissue; host or cells: human liver microsomes
# T2 sequence (P10635 whole entry): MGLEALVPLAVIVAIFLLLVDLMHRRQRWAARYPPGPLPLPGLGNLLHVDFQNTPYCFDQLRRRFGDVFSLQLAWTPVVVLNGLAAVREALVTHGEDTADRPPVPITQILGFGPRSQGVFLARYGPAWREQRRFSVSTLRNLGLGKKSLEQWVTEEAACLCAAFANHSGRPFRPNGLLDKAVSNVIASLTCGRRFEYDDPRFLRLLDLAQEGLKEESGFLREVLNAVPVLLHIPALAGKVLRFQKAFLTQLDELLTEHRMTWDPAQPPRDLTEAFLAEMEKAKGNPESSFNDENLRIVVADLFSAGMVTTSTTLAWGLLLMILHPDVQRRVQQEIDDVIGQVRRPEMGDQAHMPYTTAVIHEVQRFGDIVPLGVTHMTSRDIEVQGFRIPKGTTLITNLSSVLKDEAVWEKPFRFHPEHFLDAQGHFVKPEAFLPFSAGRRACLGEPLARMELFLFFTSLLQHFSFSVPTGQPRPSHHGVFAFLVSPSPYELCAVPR
# [2] = Aqueous solubility assay (shake-flask, LC/MS/MS); format: physicochemical; conditions: 25° C., 24 hours, SIS3 hydrochloride salt, MO-00005 free base
# Procedure: Poorly soluble compounds can dramatically reduce productivity in drug discovery and development. Solubility assays involve assessment of kinetic solubility (from DMSO stock solution) using a shake-flask technique in a plate format and LC/MS/MS analysis.
# • Analytical Column: YMC ODS-AM S-3 120A, 3×50 mm column with Guard. • Flow Rate: 500 ul/min • Mobil Phase: Isocratic 50% acetonitrile: 50% 20 mM Ammonium Acetate pH 4. Back Pressure: 1400 psi • Column Temperature: Ambient, • Autosampler Setting: Injection Volume: 5 ul, Loop Volume: 100 ul, Tray Temperature: 4° C. • Needle wash: Vial position 100. Needle wash solution: 50% Methanol water
# • Component Mass Molarity • Sodium bicarbonate (mw: 84 g/mol) 0.11628 g 0.0461 M • Sodium carbonate (anhydrous) (mw: 106 g/mol) 0.17127 g 0.0539 M • Tris Buffer pH 7.7 (100 mL) • Add 0.363 g of tris to 30 mL water. Check pH at room temperature the pH should be 7.7 with acetic acid. • Acetate Buffer pH 3.6 (30 mL) • Component Mass Molarity • Sodium Acetate (anhydrous) (mw: 82 g/mol) 0.01188 g 0.0048 M • Acetic Acid (mw: 60.05 g/mol) 0.17145 g 0.0952 M (0.17145 g=[…])
# Then run all samples at this dilution. • (xi) Run samples in duplicate and estimate aqueous solubility.
# As such, it may be expected that the hydrochloride salt will have better solubility in unbuffered aqueous solutions. There the thermodynamic equilibrium dissolution concentrations of both compounds were determined also in buffered solutions at pH 4, 7.7, and 10.4 in addition to unbuffered water.
# B16-F10 syngeneic model [3] = assay: Subcutaneous B16-F10 syngeneic model, tumor growth; format: in vivo, C57BL/6 mice
# Procedure: In order to evaluate the in vivo efficacy of SIS3 and novel compounds of the present invention, a study has been conducted in treatment of the subcutaneous B16-F10 syngeneic models.
# • Animal species and strain: C57BL/6 mice • History of treatment: Naive • Sex, age and weight: Female, 6-8 weeks • Breeder/supplier: Shanghai SLAC Laboratory Animal Co. Ltd • Adaptation: At least 7 days • Room: SPF Room • Room temperature: 20-26° C. • Room relative humidity: 40-70% • Light cycle: Fluorescent light for 12-hour light (08:00-20:00) and 12-hour dark • Animal hosting: 2-5 mice/cage each group • Food: Free access to food • Water: Free access to water (municipal tap water filtered by reverse osmosis or high-pressure sterilizer)
# B16-F10 cell was maintained at 37° C. under 5% CO2 in DMEM medium supplemented with 10% FBS and were subsequently cultured within 10 passages before inoculated into the mice.
# B16-F10 cells (3×10^5 in 100 μL of serum-free medium) were inoculated to each of C57BL/6 mice via s.c. under anesthesia by 3-4% isoflurane. Each group contains 15 mice.
# When average tumor volume reached 35-60 mm^3, 15 mice were randomized into group 6. The day of inoculation was denoted as day 0.
# Tumor dimensions were measured on Day 4, 5, 6, 8, 11, 13, 15 and 18, after inoculation in 2 dimensions with calipers.
# When required, tumor volume was measured daily. The tumor volume (V) was calculated as follows: V=(length×width^2)/2.
# The individual relative tumor volume (RTV) was calculated as follows: RTV=Vt/V0, where Vt was the volume on each day, and V0 was the volume at the beginning of the treatment.
# Tumor growth inhibition (TGI), TGI=(1−(Ti−T0)/(Ci−C0))×100%; Ti and Ci as the mean tumor volumes of the treatment and control groups on the measurement day; T0 and C0 as the mean tumor volumes of the treatment and control groups on day 0
# Results were expressed as mean±S.E.M. Comparisons between two groups were made by Dunnett's multi-comparison test, p<0.05 were considered as significant.
# [4] = Aqueous solubility assay (shake-flask, LC/MS/MS); format: physicochemical; conditions: pH 10.63 buffer, 25° C., 24 hours; SIS3 hydrochloride salt, MO-00005 free base
# [5] = single agent, i.p. QD*3 weeks, SIS3 10 and 30 mg/kg, MO-00005 10, 30 and 100 mg/kg, vs vehicle
smiles,measurement,setting,value
"COc1cc2c(cc1OC)CN(C(=O)/C=C/c1c(-c3ccccc3)n(C)c3ncccc13)CC2.Cl [SIS3, reference compound]",Tumor growth inhibition (%) TGI,"B16-F10 syngeneic model [1]; Day 13, calculated based on tumor volume of Day 8",39%
same,Tumor growth inhibition (%) TGI,"B16-F10 syngeneic model [1]; Day 15, calculated based on tumor volume of Day 8",27%
same,Tumor growth inhibition (%) TGI,"B16-F10 syngeneic model [1]; Day 18, calculated based on tumor volume of Day 8",25%
same,"CYP2C9 inhibition (HLM, diclofenac substrate) Inhibition (%)",CYP2C9,79.7661%
same,"CYP3A inhibition (HLM, midazolam substrate) Inhibition (%)",CYP3A4; midazolam substrate,20.5499%
same,"CYP3A inhibition (HLM, testosterone substrate) Inhibition (%)",CYP3A4; testosterone substrate,9.294%
same,"CYP2D6 inhibition (HLM, dextromethorphan substrate) Inhibition (%)",CYP2D6,19.1641%
same,"Conc. Of Sample (ug/mL), aqueous solubility",[2]; pH 4.03 buffer,17.2 µg/mL
same,"Conc. Of Sample (ug/mL), aqueous solubility",[2]; pH 7.70 buffer,7.0 µg/mL
same,"Conc. Of Sample (ug/mL), aqueous solubility",[2]; unbuffered water,17.7 µg/mL
same,Tumor Sizes (mm3) Mean,"B16-F10 syngeneic model [3]; 10 mg/kg q.d. * 3W i.p., Day 4 (estimated value)",0.87 mm3
same,Relative tumor volume Mean,"B16-F10 syngeneic model [3]; 10 mg/kg q.d. * 3W i.p., Day 4, RTV=Vt/V0",0.04
same,Tumor Sizes (mm3) Mean,"B16-F10 syngeneic model [3]; 10 mg/kg q.d. * 3W i.p., Day 5 (estimated value)",1.10 mm3 and 1.1 mm3
same,Relative tumor volume Mean,"B16-F10 syngeneic model [3]; 10 mg/kg q.d. * 3W i.p., Day 5, RTV=Vt/V0",0.05
same,Tumor Sizes (mm3) Mean,"B16-F10 syngeneic model [3]; 10 mg/kg q.d. * 3W i.p., Day 6 (estimated value)",3.36 mm3
same,Relative tumor volume Mean,"B16-F10 syngeneic model [3]; 10 mg/kg q.d. * 3W i.p., Day 6, RTV=Vt/V0",0.12
same,Tumor Sizes (mm3) Mean,"B16-F10 syngeneic model [3]; 10 mg/kg q.d. * 3W i.p., Day 8",43.65 mm3
same,Relative tumor volume Mean,"B16-F10 syngeneic model [3]; 10 mg/kg q.d. * 3W i.p., Day 8, RTV=Vt/V0",1.00
same,Tumor Sizes (mm3) Mean,"B16-F10 syngeneic model [3]; 10 mg/kg q.d. * 3W i.p., Day 11",156.77 mm3
same,Relative tumor volume Mean,"B16-F10 syngeneic model [3]; 10 mg/kg q.d. * 3W i.p., Day 11, RTV=Vt/V0",4.07
same,Tumor growth inhibition (%) TGI,"B16-F10 syngeneic model [3]; 10 mg/kg q.d. * 3W i.p., Day 11, calculated based on tumor volume of Day 8",29%
same,Tumor Sizes (mm3) Mean,"B16-F10 syngeneic model [3]; 10 mg/kg q.d. * 3W i.p., Day 13",443.17 mm3
same,Relative tumor volume Mean,"B16-F10 syngeneic model [3]; 10 mg/kg q.d. * 3W i.p., Day 13, RTV=Vt/V0",12.20
same,Tumor growth inhibition (%) TGI,"B16-F10 syngeneic model [3]; 10 mg/kg q.d. * 3W i.p., Day 13, calculated based on tumor volume of Day 8",26%
same,Tumor Sizes (mm3) Mean,"B16-F10 syngeneic model [3]; 10 mg/kg q.d. * 3W i.p., Day 15",793.01 mm3
same,Relative tumor volume Mean,"B16-F10 syngeneic model [3]; 10 mg/kg q.d. * 3W i.p., Day 15, RTV=Vt/V0",22.19
same,Tumor growth inhibition (%) TGI,"B16-F10 syngeneic model [3]; 10 mg/kg q.d. * 3W i.p., Day 15, calculated based on tumor volume of Day 8",25%
same,Tumor Sizes (mm3) Mean,"B16-F10 syngeneic model [3]; 10 mg/kg q.d. * 3W i.p., Day 18",2209.13 mm3
same,Relative tumor volume Mean,"B16-F10 syngeneic model [3]; 10 mg/kg q.d. * 3W i.p., Day 18, RTV=Vt/V0",62.21
same,Tumor growth inhibition (%) TGI,"B16-F10 syngeneic model [3]; 10 mg/kg q.d. * 3W i.p., Day 18, calculated based on tumor volume of Day 8",21%
same,Tumor Sizes (mm3) Mean,"B16-F10 syngeneic model [3]; 30 mg/kg q.d. * 3W i.p., Day 4 (estimated value)",0.28 mm3
same,Relative tumor volume Mean,"B16-F10 syngeneic model [3]; 30 mg/kg q.d. * 3W i.p., Day 4, RTV=Vt/V0",0.01
same,Tumor Sizes (mm3) Mean,"B16-F10 syngeneic model [3]; 30 mg/kg q.d. * 3W i.p., Day 5 (estimated value)",0.46 mm3
same,Relative tumor volume Mean,"B16-F10 syngeneic model [3]; 30 mg/kg q.d. * 3W i.p., Day 5, RTV=Vt/V0",0.01
same,Tumor Sizes (mm3) Mean,"B16-F10 syngeneic model [3]; 30 mg/kg q.d. * 3W i.p., Day 6 (estimated value)",3.44 mm3
same,Relative tumor volume Mean,"B16-F10 syngeneic model [3]; 30 mg/kg q.d. * 3W i.p., Day 6, RTV=Vt/V0",0.12
same,Tumor Sizes (mm3) Mean,"B16-F10 syngeneic model [3]; 30 mg/kg q.d. * 3W i.p., Day 8",49.16 mm3
same,Relative tumor volume Mean,"B16-F10 syngeneic model [3]; 30 mg/kg q.d. * 3W i.p., Day 8, RTV=Vt/V0",1.00
same,Tumor Sizes (mm3) Mean,"B16-F10 syngeneic model [3]; 30 mg/kg q.d. * 3W i.p., Day 11",163.60 mm3 and 163.6 mm3
same,Relative tumor volume Mean,"B16-F10 syngeneic model [3]; 30 mg/kg q.d. * 3W i.p., Day 11, RTV=Vt/V0",3.98
same,Tumor growth inhibition (%) TGI,"B16-F10 syngeneic model [3]; 30 mg/kg q.d. * 3W i.p., Day 11, calculated based on tumor volume of Day 8",28%
same,Tumor Sizes (mm3) Mean,"B16-F10 syngeneic model [3]; 30 mg/kg q.d. * 3W i.p., Day 13",379.84 mm3
same,Relative tumor volume Mean,"B16-F10 syngeneic model [3]; 30 mg/kg q.d. * 3W i.p., Day 13, RTV=Vt/V0",9.22
same,Tumor Sizes (mm3) Mean,"B16-F10 syngeneic model [3]; 30 mg/kg q.d. * 3W i.p., Day 15",786.37 mm3
same,Relative tumor volume Mean,"B16-F10 syngeneic model [3]; 30 mg/kg q.d. * 3W i.p., Day 15, RTV=Vt/V0",23.71
same,Tumor Sizes (mm3) Mean,"B16-F10 syngeneic model [3]; 30 mg/kg q.d. * 3W i.p., Day 18",2131.42 mm3
same,Relative tumor volume Mean,"B16-F10 syngeneic model [3]; 30 mg/kg q.d. * 3W i.p., Day 18, RTV=Vt/V0",70.14
same,anti-tumor activity against the B16-F10 syngeneic model (in words),B16-F10 syngeneic model [3]; [5],anti-tumor response; also recorded: significant anti-tumor activity
same,efficacy on tumor weight (in words),B16-F10 syngeneic model [3]; [5],significant efficacy on tumor weight
same,"Conc. Of Sample (ug/mL), aqueous solubility",[4],2.4 µg/mL
